Measurements: US7709004B2, “Method of producing an HIV-1 immune response” (Bionor Immuno AS, priority 1999, dated 2010)
Bridge positions count the residues as written; N and C are the ends. Ends that are not written are not given here. I, II: the chains in the order shown.

Tested on: NMFI female mice
Test: toxicity of the dipeptide by injection to mice
Format: in vivo
Conditions: 100 μg per kg bodyweight, test solution 4 mg/ml in 0.9% NaCl
Method: The dipeptide of Example 13 was diluted in 0.9% NaCl) to a test solution concentration of 4 mg/ml. The peptide was administered by injection to NMFI female mice in a dose of 100 μg per kg bodyweight.

I: WIIPGLNPLVGGGKLYSPTSILCG-NH2 / II: KALGPGATLQTPWTACQGVG-NH2 (disulfide I:23-II:16) [Example 13]
toxicological effects: No toxicological effects were observed
